Laboratory results as given in patent publication US20210283211A1, “COMPOSITIONS AND METHODS OF ALLEVIATING RESISTANCE TO CHEMOTHERAPY” (CITY OF HOPE, priority 2019, published 2021).
Entries after “also recorded” stand apart in the source; their conditions may differ.

What was measured:
H358 cells = experiment: Cell-based rescreen of top virtual-screen hits, IC50 determination; settings: Homo sapiens, NCI-H358, 0.1 μM to 10 μM, 72 hours
Procedure: Cell viability assay: Cell Counting Kit-8 (CCK-8) was purchased from Dojindo Molecular Technologies (Rockville, Md., USA). Cells were seeded on a 96-well plate and allowed to adhere in complete medium for 24 hours. Test compounds were added to 100 μl of medium at the indicated concentrations for 72 hours. Ten μl of the CCK-8 reagent were added to each well and absorbance at 450 nm was measured using a Tecan Spark 10M multimode microplate reader.
A virtual screen of a library of 1440 FDA-approved drugs using binding pockets in the N-terminal domain of PXN (FIG. 9H) identified several putative hits. The top 40 hits were then rescreened employing a cell-based assay to determine their efficacy using H358 cells.

[1] = test system: ITGB4 and PXN expression, γH2AX in H358 cells; experiment: Immunoblot after sublethal dose; assay type: cell-based, human; settings: 72 hours
Procedure: West blotting: Cell lysates were prepared with 1×RIPA buffer (MilliporeSigma) and denatured in 1× reducing sample buffer at 95° C. for 5 minutes. Protein samples (15 μg) were run on 4-15% TGX gels (Bio-Rad, Hercules, Calif., USA) and transferred onto nitrocellulose membranes (Bio-Rad). Blots were blocked with 5% non-fat milk in TBS-T for 1 hour at room temperature and probed with primary antibody diluted in 2.5% BSA in TBS-T overnight at 4° C. After three washes with TBS-T, blots were incubated with HRP-conjugated secondary antibodies for 2 hours at room temperature. After three more washes, bands of interest were visualized via chemiluminescence using Western Bright ECL HRP substrate (Advansta, Menlo Park, Calif., USA) and imaged with the ChemiDoc MP imager (Bio-Rad).
Then a sublethal dose was used to determine the effect of these compounds on ITGB4 and PXN expression and caspase activity (FIG. 9I). […] These eleven compounds were further screened in the cisplatin-resistant cell line H2009. […] Further, carfilzomib was tested in another cisplatin-resistant cell line H1993.

H2009 cells [2] = experiment: Scratch wound healing assay; assay type: cell-based, human; settings: for cell migration / wound healing: sublethal dose (carfilzomib 50-200 nM)
Procedure: (§1) Scratch wound healing assay. Cells were seeded on a 96-well Image Lock (Essen BioScience, Ann Arbor, Mich., USA) plate to reach 90% confluence by the next day. After cell adherence, 96 uniform wounds were created simultaneously using the WoundMaker (Essen BioScience) tool. Cells were washed once with serum-free medium and replenished with complete medium. To monitor wound healing, the plate was placed in the IncuCyte S3 Live-Cell Analysis System (Essen BioScience) and images were acquired every hour. Data analysis was generated by the IncuCyte software using a set confluence mask to measure relative wound density over time.
(§2) To discern the effect of knocking down ITGB4 on cell migration, H1993 and H2009 cells were transfected with the control or ITGB4-specific siRNA in 6-well plates and 12 hours post transfection, the cells were trypsinized and reseeded at high density in a 96-well plate. […] While both cell lines transfected with the control siRNA achieved 100% confluency of the wound within 48 hours, H1993 and 2009 cells in which ITGB4 was knocked down reached ˜60% and ˜80% confluency, respectively; neither cell line reached 100% confluency even after 96 h (FIG. 3F). Next the rate of wound closure was estimated. The rate was determined by dividing initial wound width by the time taken to close the wound. […] Similarly, in the case of the H2009 cells, the wound width closure rate dropped from 22 μm/h to about 18 μm/h (FIG. 3G). […] Additionally, up regulation of expression of other integrin β forms in response to ITGB4 knockdown was checked and an increase in the expression of ITGB1, ITGB2, and ITGB3 at mRNA level was found (FIG. 3I). The effect of ITGB3 silencing in the ITGB4 knocked down cells was further tested but no significant difference in their proliferation was found (FIG. 3J).

H2009 cells [3] = experiment: IncuCyte cell proliferation and caspase-3/7 apoptosis assay; assay type: cell-based, human
Procedure: (§3) Cell proliferation and apoptosis assay. Cell proliferation assays were performed using cell lines stably transfected with NucLight Red Lentivirus (Essen Bioscience) to accurately visualize and count the nucleus of a single cell. Cells were seeded on a 96-well plate and allowed to adhere for 24 hours. Test compounds were added at indicated concentrations. Caspase-3/7 Green Apoptosis Reagent (Essen Bioscience) was also added as a green fluorescent indicator of caspase-3/7-mediated apoptotic activity. To monitor cell proliferation and apoptosis over time, the plate was placed in the IncuCyte S3 Live-Cell Analysis System (Essen BioScience) and images were acquired every 2 hours. Data analysis was generated by the IncuCyte software using a red fluorescence mask to accurately count each cell nucleus and a green fluorescence mask to measure apoptosis over time.
(§4) To determine whether the inhibition in cell proliferation associated with ITGB4 knockdown was due to enhanced apoptosis or reduced cell division (cytostatic), the Essen Bioscience Caspase-3/7 Green apoptosis assay in live cells was conducted. The NucView™[…], a DNA intercalating dye was used to enable quantification of apoptosis over time. The dye is impermeable and non-toxic to cells but once the cell membrane is permeabilized by caspase-3/7, the dye enters the cell and gets activated due to change in pH leading to the generation of green fluorescence that is then detected in real time and quantified using the IncuCyte System (FIG. 4B).
(§5) To address this, H1993 and H2009 cells were treated with cisplatin for 3 days and the changes were analyzed by immunoblotting. […] Next, H1993 and H2009 cells were transiently transfected with ITGB4 siRNA and 24 hours post-transfection they were treated with 10 μM cisplatin and cell proliferation and caspase activity were determined. […] However, in response to cisplatin in ITGB4 knockdown cells, the fold change dipped to <1, alluding to a cytotoxic effect (FIG. 4C). […] However, cell death was not due to caspase activation but appeared to be due to cell bursting which is seen in anoikis (FIGS. 3K and 3L).

H1993 cells [4] = experiment: as above; assay type: cell-based, human; settings: for inhibition of cell proliferation: siRNA knockdown
Procedure: as §3, §4
as §5, with “3L). […]” for “3L).”

H1993 cells [5] = experiment: Scratch wound healing assay; assay type: cell-based, human; settings: ITGB4 knockdown
Procedure: as §1, §2

Q: For `CN(C)C/C=C/C(=O)Nc1cc2c(Nc3ccc(F)c(Cl)c3)ncnc2cc1O[C@H]1CCOC1` [Afatinib], which IC50 (H358 cells) is on record?
A: 9 nM

Q: Which “apoptosis, DNA damage (γH2AX) and ITGB4 expression” value [1] does the source give for `C#Cc1cccc(Nc2ncnc3cc(OC)c(OCCCCCCC(=O)NO)cc23)c1` [CUDC-101] here?
A: induced apoptosis and caused DNA damage

Q: And the “cell migration / wound healing” value (H2009 cells [2])?
A: less effective than carfilzomib in inhibiting wound healing; also recorded: did not

Q: And the IC50 (H358 cells)?
A: 501 nM

Q: For `CCS(=O)(=O)N1CCN(c2ccc(Nc3ncc(C(N)=O)c(NC4CC4)n3)cc2)CC1` [Cerdulatinib], which IC50 (H358 cells) is on record?
A: 1540 nM

Q: For `COc1cc2ncnc(Nc3ccc(F)c(Cl)c3)c2cc1NC(=O)/C=C/CN1CCCCC1` [Dacomitinib], which IC50 (H358 cells) is on record?
A: 60 nM

Q: With `Cc1nc(Nc2ncc(C(=O)Nc3c(C)cccc3Cl)s2)cc(N2CCN(CCO)CC2)n1` [Dasatinib] as the molecule, how does the IC50 (H358 cells) read?
A: 1 nM

Q: Which results are given for `CC(C)C[C@H](NC(=O)CNC(=O)c1cc(Cl)ccc1Cl)B(O)O` [Ixazomib]?
A: apoptosis, DNA damage (γH2AX) and ITGB4 expression [1]: induced apoptosis and caused DNA damage; cell migration / wound healing (H2009 cells [2]): less effective than carfilzomib in inhibiting wound healing; also recorded: impeded cell migration; IC50 (H358 cells): 303 nM

Q: For `Cc1cnc(-c2ccccc2C(C)C)nc1NCc1ccc(-n2ccnn2)cc1` [ML323], which “cell proliferation rates” value (H2009 cells [3]; 5 μM and 10 μM, 3 days) is on record?
A: no significant change

Q: And the “cell proliferation rates” value (H1993 cells [4]; 5 μM and 10 μM, 3 days)?
A: no significant change

Q: With `C=CC(=O)Nc1cc(Nc2nccc(-c3cn(C)c4ccccc34)n2)c(OC)cc1N(C)CCN(C)C` [Osimertinib] as the molecule, how does the IC50 (H358 cells) read?
A: 358 nM

Q: With `C1=C/COCc2cc(ccc2OCCN2CCCC2)Nc2nccc(n2)-c2cccc(c2)COC/1` [Pacritinib] as the molecule, how does the IC50 (H358 cells) read?
A: 171 nM

Q: With `C=CC(=O)N1CCC(Oc2cc3c(Nc4ccc(Cl)c(Cl)c4F)ncnc3cc2OC)CC1` [Poziotinib] as the molecule, how does the IC50 (H358 cells) read?
A: 60 nM

Q: `Cc1cc(Nc2cc(N3CCN(C)CC3)nc(Sc3ccc(NC(=O)C4CC4)cc3)n2)[nH]n1` [Tozasertib] was tested. Which IC50 (H358 cells) did it give?
A: 0.9 nM

Q: “ACAACACUCAGAAUCUAAAUUGGAC (SEQ ID NO: 13) (listed as RNA, chemistry not given here) [VDAC1 siRNA, siRNA against VDAC1]” was tested. Which increase in apoptosis (H2009 cells [3]; VDAC1 knockdown, 120 hours) did it give?
A: 2 fold

Q: And the “decrease in cell proliferation” value (H2009 cells [3]; VDAC1 knockdown, by 72 hours)?
A: 50%

Q: With “GCUUCGCUGUCGGAUUUCATT (SEQ ID NO: 6) (chemistry not given here) [PXN siRNA, siRNA against PXN, Life Technologies Cat 4392421]” as the molecule, how does the “inhibition of cell proliferation” value (H1993 cells [4]) read?
A: 15%

Q: “GGAGCACAAAGCCAACUAACGARCA (SEQ ID NO: 11) (listed as RNA, chemistry not given here) [USP1 siRNA, siRNA against USP1, construct B, OriGene SR305052B]” was tested. Which “inhibition of cell proliferation” value (H2009 cells [3]; USP1 knockdown, by 72 hours of seeding) did it give?
A: > 2 fold

Q: How did the doubling time (H2009 cells [3]; ITGB4 knockdown, control approximately 25 hours) turn out when “GUCAGUUCUGCGAGUAUGACAACTT (SEQ ID NO: 9) (chemistry not given here) [ITGB4 siRNA, siRNA against ITGB4, construct C, OriGene SR302473C]” was run?
A: 40 h

Q: And the “wound width closure rate” value (H2009 cells [2]; ITGB4 knockdown, control 22 μm/h)?
A: about 18 μm/h

Q: And the wound confluency (H2009 cells [2]; ITGB4 knockdown, control siRNA 100% within 48 hours)?
A: ~80%

Q: What about the wound confluency (H1993 cells [5]; control siRNA 100% within 48 hours) of the same molecule?
A: ~60%

Q: What about the wound closure rate (H1993 cells [5]; control ~25 μm/h) of the same molecule?
A: < 10 μm/h

Q: And the “fold change in cell count” value (H1993 cells [4]; ITGB4 knockdown or 10 μM cisplatin alone, cytostatic)?
A: ~1 fold

Q: And the “fold change in cell count” value (H1993 cells [4]; ITGB4 knockdown plus 10 μM cisplatin, cytotoxic)?
A: < 1 fold

Q: What about the “increase in caspase activity compared to control” value (H1993 cells [4]; ITGB4 knockdown, by 24 hours) of the same molecule?
A: 5- to 6 fold

Q: What about the “increase in caspase activity compared to control” value (H1993 cells [4]; ITGB4 knockdown, by 72 hours) of the same molecule?
A: 20 fold

Q: What about the “increase in cell count” value (H1993 cells [4]; ITGB4 knockdown, by 72 hours) of the same molecule?
A: 0.2 fold

Q: What about the estimated doubling time (H1993 cells [4]; ITGB4 knockdown, control 72 hours) of the same molecule?
A: approximately 120 hours

Q: What about the “drop in the fold change of cell count” value (H1993 cells [4]; knockdown plus cisplatin, compared to scramble siRNA cells treated with cisplatin) of the same molecule?
A: 40%

Q: What about the “inhibition of cell proliferation” value (H1993 cells [4]) of the same molecule?
A: 50%
